From publication PMC9116245, “New 1,2,3-triazole linked ciprofloxacin-chalcones induce DNA damage by inhibiting human topoisomerase I& II and tubulin polymerization” (Journal of Enzyme Inhibition and Medicinal Chemistry, 2022)

Assays:
786-0 = assay: NCI one-dose screen; assay type: cell-based; settings: Homo sapiens; 786-0, 10 µM; read-out: Growth Percent
Description: (§1) For screening of anticancer properties, all the developed compounds were chosen by the (NCI) for in-vitro antitumor evaluation. The assay was carried out using 59 human cancer cell lines obtained from nine tumour subpanels (breast, ovarian, melanoma, leukaemia, renal, CNS, lung, prostate, and colon cancer cell lines). Compounds were assessed at a 10 µM concentration. […] Also, hybrids 4a, 4b, 4e, 4i and 4j produced significant anti-proliferative effect in several cancer cells, particularly in leukaemia (RPMI-8226) and colon (HCT116) cells with growth percent of 47.87, −14.59, −24.56, −24.42, −15.84, −9.74, −53.36, −10.26, −31.29, and −39.51%, respectively.
(§2) The method description for NCI anticancer screening is provided in detail in the standard NCI-60 testing protocol.

A549/ATCC = assay: NCI one-dose screen; assay type: cell-based; settings: Homo sapiens, read-out: Growth Percent
Description: as §1, §2

ACHN = assay: NCI one-dose screen; assay type: cell-based; settings: Homo sapiens, read-out: Growth Percent
Description: as §1, §2

CCRF-CEM = assay: NCI one-dose screen; assay type: cell-based; settings: Homo sapiens, read-out: Growth Percent
Description: as §1, §2

DU-145 = assay: NCI one-dose screen; assay type: cell-based; settings: Homo sapiens; DU-145, 10 µM; read-out: Growth Percent
Description: as §1, §2

HCC-2998 = assay: NCI one-dose screen; assay type: cell-based; settings: Homo sapiens; HCC-2998, 10 µM; read-out: Growth Percent
Description: as §1, §2

HOP-62 = assay: NCI one-dose screen; assay type: cell-based; settings: Homo sapiens; HOP-62, 10 µM; read-out: Growth Percent
Description: as §1, §2

HT29 = assay: NCI one-dose screen; assay type: cell-based; settings: Homo sapiens, HT-29; HT29, 10 µM; read-out: Growth Percent
Description: as §1, §2

IGROV1 = assay: NCI one-dose screen; assay type: cell-based; settings: Homo sapiens, IGROV-1; IGROV1, 10 µM; read-out: Growth Percent
Description: as §1, §2

LOX IMVI = assay: NCI one-dose screen; assay type: cell-based; settings: Homo sapiens, read-out: Growth Percent
Description: as §1, §2

MDA-MB-435 = assay: NCI one-dose screen; assay type: cell-based; settings: Homo sapiens; MDA-MB-435, 10 µM; read-out: Growth Percent
Description: as §1, §2

MDA-MB-468 = assay: NCI one-dose screen; assay type: cell-based; settings: Homo sapiens; MDA-MB-468, 10 µM; read-out: Growth Percent
Description: as §1, §2

NCI-H226 = assay: NCI one-dose screen; assay type: cell-based; settings: Homo sapiens; NCI-H226, 10 µM; read-out: Growth Percent
Description: as §1, §2

NCI-H460 = assay: NCI one-dose screen; assay type: cell-based; settings: Homo sapiens; NCI-H460, 10 µM; read-out: Growth Percent
Description: as §1, §2

NCI-H522 = assay: NCI one-dose screen; assay type: cell-based; settings: Homo sapiens; NCI-H522, 10 µM; read-out: Growth Percent
Description: as §1, §2

OVCAR-4 = assay: NCI one-dose screen; assay type: cell-based; settings: Homo sapiens; OVCAR-4, 10 µM; read-out: Growth Percent
Description: as §1, §2

OVCAR-8 = assay: NCI one-dose screen; assay type: cell-based; settings: Homo sapiens; OVCAR-8, 10 µM; read-out: Growth Percent
Description: as §1, §2

PC-3 = assay: NCI one-dose screen; assay type: cell-based; settings: Homo sapiens; PC-3, 10 µM; read-out: Growth Percent
Description: as §1, §2

RXF 393 = assay: NCI one-dose screen; assay type: cell-based; settings: Homo sapiens; RXF 393, 10 µM; read-out: Growth Percent
Description: as §1, §2

SK-MEL-5 = assay: NCI one-dose screen; assay type: cell-based; settings: Homo sapiens; SK-MEL-5, 10 µM; read-out: Growth Percent
Description: as §1, §2

SK-OV-3 = assay: NCI one-dose screen; assay type: cell-based; settings: Homo sapiens; SK-OV-3, 10 µM; read-out: Growth Percent
Description: as §1, §2

SN12C = assay: NCI one-dose screen; assay type: cell-based; settings: Homo sapiens, read-out: Growth Percent
Description: as §1, §2

SNB-19 = assay: NCI one-dose screen; assay type: cell-based; settings: Homo sapiens; SNB-19, 10 µM; read-out: Growth Percent
Description: as §1, §2

SNB-75 = assay: NCI one-dose screen; assay type: cell-based; settings: Homo sapiens; SNB-75, 10 µM; read-out: Growth Percent
Description: as §1, §2

SR = assay: NCI one-dose screen; assay type: cell-based; settings: Homo sapiens, read-out: Growth Percent
Description: as §1, §2

SW-620 = assay: NCI one-dose screen; assay type: cell-based; settings: Homo sapiens; SW-620, 10 µM; read-out: Growth Percent
Description: as §1, §2

TK-10 = assay: NCI one-dose screen; assay type: cell-based; settings: Homo sapiens; TK-10, 10 µM; read-out: Growth Percent
Description: as §1, §2

UACC-257 = assay: NCI one-dose screen; assay type: cell-based; settings: Homo sapiens; UACC-257, 10 µM; read-out: Growth Percent
Description: as §1, §2

UACC-62 = assay: NCI one-dose screen; assay type: cell-based; settings: Homo sapiens; UACC-62, 10 µM; read-out: Growth Percent
Description: as §1, §2

HCT-116 = assay: NCI one-dose screen; assay type: cell-based, human; settings: HCT-116, 10 µM; for activity at 10 µM: Homo sapiens, read-out: Growth Percent
Description: as §1, §2

RPMI-8226 = assay: NCI one-dose screen; assay type: cell-based, human; settings: RPMI-8226, 10 µM; for activity at 10 µM: Homo sapiens, read-out: Growth Percent
Description: as §1, §2

[1] = system: 59 human cancer cell lines; assay: NCI one-dose screen, whole panel; assay type: cell-based; settings: Homo sapiens, mean over the panel, read-out: Mean Growth Percent
Description: as §1, §2

Caco-2 = assay: MTT assay; assay type: cell-based; settings: Homo sapiens; Caco-2, MTT assay, 24 h incubation
Description: (§3) The proliferation of colorectal cancer cells (HCT116, HT29 and Caco-2) was assessed using MTT assay as previously reported. Cells were treated with increasing concentrations of 1, 5, 10, 20, 40, 80 or 100 µM of CP hybrids 4a-j, doxorubicin, or DMSO. See Supplementary Appendix A.

HCT116 = assay: MTT assay; assay type: cell-based; settings: Homo sapiens, HCT-116, 24 h incubation
Description: as §3

HT-29 = assay: MTT assay; assay type: cell-based; settings: Homo sapiens; HT-29, MTT assay, 24 h incubation
Description: as §3

| Structure (SMILES) | activity at 10 µM (786-0) [%] | activity at 10 µM (A549/ATCC) [%] | activity at 10 µM (ACHN) [%] | activity at 10 µM (CCRF-CEM) [%] | activity at 10 µM (DU-145) [%] | activity at 10 µM (HCC-2998) [%] | activity at 10 µM (HOP-62) [%] | activity at 10 µM (HT29) [%] | activity at 10 µM (IGROV1) [%] | activity at 10 µM (LOX IMVI) [%] | activity at 10 µM (MDA-MB-435) [%] | activity at 10 µM (MDA-MB-468) [%] | activity at 10 µM (NCI-H226) [%] | activity at 10 µM (NCI-H460) [%] | activity at 10 µM (NCI-H522) [%] | activity at 10 µM (OVCAR-4) [%] | activity at 10 µM (OVCAR-8) [%] | activity at 10 µM (PC-3) [%] | activity at 10 µM (RXF 393) [%] | activity at 10 µM (SK-MEL-5) [%] | further results |
| --- | --- | --- | --- | --- | --- | --- | --- | --- | --- | --- | --- | --- | --- | --- | --- | --- | --- | --- | --- | --- | --- |
| CN(C)c1ccc(/C=C/C(=O)c2ccc(-n3cc(CN4CCN(c5cc6c(cc5F)c(=O)c(C(=O)O)cn6C5CC5)CC4)nn3)cc2)cc1 [Compound 4h, (E)-1-cyclopropyl-7–(4-((1–(4-(3-(4-(dimethylamino)phenyl)acryloyl)phenyl)-1H-1,2,3-triazol-4-yl)methyl)piperazin-1-yl)-6-fluoro-4-oxo-1,4-dihydroquinoline-3-carboxylic acid] | 65 | 93.5 | 89.8 | 84.3 | 96.3 | 92.4 | 81.3 | 98.9 | 69.9 | 56.9 | 77.4 | 77.1 | 84.6 | 89.7 | 88.6 | 94.8 | 62.5 | 89.6 | 70.9 | 86.2 | activity at 10 µM (SK-OV-3): 84.7%; activity at 10 µM (SN12C): 67.7%; activity at 10 µM (SNB-19): 86.4%; activity at 10 µM (SNB-75): 70.8%; activity at 10 µM (SR): 63.2%; activity at 10 µM (SW-620): 98.5%; activity at 10 µM (TK-10): 104%; activity at 10 µM (UACC-257): 101%; activity at 10 µM (UACC-62): 77.6%; activity at 10 µM (HCT-116): 8.04%; activity at 10 µM (RPMI-8226): 44.3%; activity at 10 µM [1]: 82%; IC50 (Caco-2): 6.39 ± 1.41 µM; IC50 (HCT116): 5.09 ± 2.74 µM; IC50 (HT-29): 21.7 ± 2.74 µM |
| O=C(/C=C/c1cccc(Cl)c1)c1ccc(-n2cc(CN3CCN(c4cc5c(cc4F)c(=O)c(C(=O)O)cn5C4CC4)CC3)nn2)cc1 [Compound 4b, (E)-7-(4-((1–(4-(3-(3-chlorophenyl)acryloyl)phenyl)-1H-1,2,3-triazol-4-yl)methyl)piperazin-1-yl)-1-cyclopropyl-6-fluoro-4-oxo-1,4-dihydroquinoline-3-carboxylic acid] | 53.9 | 71.6 | 77.7 | 29.9 | 77.5 | 59.3 | 67.7 | 53.3 | 51.8 | 36.9 | 74 | 64.8 | 82.1 | 66.7 | 83.9 | 62.9 | 42.7 | 74 | 70.8 | 78.7 | activity at 10 µM (SK-OV-3): 72.3%; activity at 10 µM (SN12C): 37.6%; activity at 10 µM (SNB-19): 53.8%; activity at 10 µM (SNB-75): 89.2%; activity at 10 µM (SR): 14.1%; activity at 10 µM (SW-620): 85.4%; activity at 10 µM (TK-10): 84.9%; activity at 10 µM (UACC-257): 87.7%; activity at 10 µM (UACC-62): 61.2%; Growth Percent (HCT-116): -53.36%; activity at 10 µM (HCT-116): -53.4%; activity at 10 µM (RPMI-8226): -14.6%; Growth Percent (RPMI-8226): -14.59%; activity at 10 µM [1]: 65%; IC50 (Caco-2): 24.4 ± 3.07 µM; IC50 (HCT116): 4.81 ± 1.21 µM; IC50 (HT-29): 42.9 ± 5.14 µM |
